Consider one molecule from publication PMC6275946 (ACS Omega, 2018).

For assay [1], the target named is T1, SHP1 (Src-homology-2-domain containing protein tyrosine phosphatase 1) (Homo sapiens, UniProt P29350).
T1 sequence (P29350 244-515 limits assumed): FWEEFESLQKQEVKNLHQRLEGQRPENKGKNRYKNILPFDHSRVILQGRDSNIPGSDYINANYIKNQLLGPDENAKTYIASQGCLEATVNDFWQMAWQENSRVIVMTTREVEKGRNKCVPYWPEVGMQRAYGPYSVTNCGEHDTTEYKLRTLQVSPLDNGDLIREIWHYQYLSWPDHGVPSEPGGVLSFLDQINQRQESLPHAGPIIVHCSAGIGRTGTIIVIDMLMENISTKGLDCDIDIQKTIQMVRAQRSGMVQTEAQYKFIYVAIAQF
The assay is described as follows: pNPP phosphatase assay, […] compound, […] h preincubation at […] °C. It is filed as biochemical.

Assay [2] addresses SHP2 (Src-homology-2-domain-containing PTP 2) (Homo sapiens, UniProt Q06124). The assay can be described thus: LC-MS/MS of covalent cysteine labeling. It is filed as biochemical.

Chain of SHP2 (Src-homology-2-domain-containing PTP 2) (Q06124 1-541): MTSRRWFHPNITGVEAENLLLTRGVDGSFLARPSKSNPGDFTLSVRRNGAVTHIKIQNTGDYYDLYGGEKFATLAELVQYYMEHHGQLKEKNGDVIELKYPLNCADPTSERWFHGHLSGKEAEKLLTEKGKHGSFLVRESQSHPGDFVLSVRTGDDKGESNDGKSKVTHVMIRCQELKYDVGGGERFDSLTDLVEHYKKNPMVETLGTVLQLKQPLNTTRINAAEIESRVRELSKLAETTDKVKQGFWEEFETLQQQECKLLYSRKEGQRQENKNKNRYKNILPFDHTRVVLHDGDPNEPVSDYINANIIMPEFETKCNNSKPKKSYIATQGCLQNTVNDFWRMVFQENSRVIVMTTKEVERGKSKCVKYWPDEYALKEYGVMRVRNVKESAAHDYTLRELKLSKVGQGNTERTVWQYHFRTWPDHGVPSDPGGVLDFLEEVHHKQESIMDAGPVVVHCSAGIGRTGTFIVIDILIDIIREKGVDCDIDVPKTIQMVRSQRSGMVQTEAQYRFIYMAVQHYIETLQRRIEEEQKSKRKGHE

Take `C=CC(=O)Nc1ccnc2ccccc12` [compound 12, N-(Quinolin-4-yl)prop-2-enamide]: the “pNPP phosphatase assay, 50 μM compound, 4 h preincubation at 37 °C” value in assay [1] was “the only two human PTPs that have cysteine at this position, SHP2 and SHP1, are sensitive to inhibition”. The IC50 (usually the concentration at which inhibition is half-maximal) in assay [2] is around 35 µM.
